Measured values as given in US20120065152A1 (SHIRE LLC, priority 2010, published 2012).
Read-outs that look alike come from different tables or passages of the source.

Key:
rat GIT transit = test: Charcoal propulsion test (gut motility) in rat; assay type: in vivo; settings: oral, 60 min before charcoal
Method: The effect of a drug on gut motility can be studied by means of the charcoal propulsion test.
The method used was based on that described by Takemori et al. (J. Pharmacol. Exp. Ther. 169:39, 1969). Test treatments were administered orally 60 minutes prior to an oral dose of a 10% suspension of charcoal in 2.5% gum Arabic (2 ml/kg). Twenty minutes after dosing with charcoal, the rats were sacrificed and the entire gastrointestinal tract was removed quickly and carefully. The distance that the charcoal meal had traveled toward the caecum was measured and expressed as a percentage of the total gut length.

[1] = Microdose comparative bioavailability study in healthy adult subjects; assay type: in vivo; settings: both sexes, plasma, healthy human volunteers, oral, 100 µg free base
Method: Blood samples were withdrawn pre-dose and at 0.5, 1, 2, 3, 4, 5, 6, 8, 12, 16, 24, 32, and 48 hours post dose and submitted to analysis for the parent drug and prodrug using a validated LC-MS-MS assay. The following pharmacokinetic parameters derived from the plasma analytical data were determined;

[2] = Comparative bioavailability study of guanfacine in monkeys given guanfacine or guanfacine prodrug; assay type: in vivo, monkey
Method: Blood samples were taken at various times after administration and submitted to analysis for the parent drug and prodrug using a qualified LC-MS-MS assay. The following pharmacokinetic parameters derived from the plasma analytical data were determined using Win Nonlin;

Solubility = settings: Solubility
a-2A adrenoceptor = molecular target: T1, a-2A adrenoceptor (Homo sapiens, UniProt P08913); test: a-2 adrenoceptor binding assay, [3H] RX821002 competition; settings: human recombinant CHO cells, [3H] RX821002 (1 nM)
T1 construct: expressed in transfected cells; host or cells: CHO cells
T1 sequence (P08913 1-465): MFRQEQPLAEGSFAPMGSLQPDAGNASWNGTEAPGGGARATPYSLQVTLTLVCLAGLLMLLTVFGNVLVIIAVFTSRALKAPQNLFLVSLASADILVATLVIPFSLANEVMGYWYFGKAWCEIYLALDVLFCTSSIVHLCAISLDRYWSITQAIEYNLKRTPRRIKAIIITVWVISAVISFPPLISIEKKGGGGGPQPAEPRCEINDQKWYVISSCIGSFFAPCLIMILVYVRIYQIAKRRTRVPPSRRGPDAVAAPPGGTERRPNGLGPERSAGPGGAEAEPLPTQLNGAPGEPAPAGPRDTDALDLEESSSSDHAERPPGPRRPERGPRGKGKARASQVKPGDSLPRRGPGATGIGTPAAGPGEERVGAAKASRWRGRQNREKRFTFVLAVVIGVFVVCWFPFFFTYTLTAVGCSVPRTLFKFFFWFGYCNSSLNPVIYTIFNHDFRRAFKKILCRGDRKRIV
Excerpt: The activation of this receptor is responsible for its intended therapeutic effect. […] The binding assay methodology employed in this study followed that described by […] et al. (Eur. J. Pharmacol. 167:95-104, 1989) and used human recombinant CHO cells expressing a-2 adrenceptors. The competitive binding ligand was [3H]

[3] = Pharmacokinetics of guanfacine and prodrug in rat hepatic portal and tail veins after oral prodrug; assay type: in vivo; settings: 1 mg/kg
Excerpt: The collection of blood from the hepatic portal vein following oral administration allows the analysis of absorbed prodrug and active drug levels prior to first pass metabolism in the liver. Systemic levels can be measured by sampling of blood from the tail vein. Rats were surgically prepared under isofluorane anaesthesia by attaching a silicon catheter to the portal vein then exteriorising it at the nape of the neck with a blood collection port attached. Oral doses of compound 3 were administered by gavage as a single bolus dose at a dose volume of 10 mL/kg. At each sampling time serial point blood samples (approximately 0.2 mL) were taken simultaneously from the lateral tail vein cannula and the hepatic portal cannula. After collection of the final blood sample each animal was killed by cervical dislocation. […] Pharmacokinetic parameters in portal and systemic plasma were derived by non-compartmental analysis (linear/logarithmic trapezoidal) using WinNonlin (Version 4.1) software.

half-life ([1]; n = 4, read-out: t½, analyte Compound 3 (converted)): 57 ± 11.4 min
AUC(0-t) ([1]; read-out: AUC0-t, analyte Compound 3): 0.092 ± 0.043 ng·h/mL
Cmax ([1]; read-out: Cmax, analyte Compound 3): 0.089 ± 0.038 ng/mL
Cmax ([2]; monkey, plasma, po, 0.5 mg/kg): 0.93 ng/mL
Time after administration up to which systemic prodrug was detectable ([2]; monkeys, 0.5 mg/kg guanfacine free base equivalents): up to 24 hours
solubility (Solubility; DMSO, organic solvent or mixture, in DMSO): > 10000 µg/mL
solubility (Solubility; water, in water): < 1000 µg/mL
Ki (a-2A adrenoceptor): > 10 µM
AUC ([3]; hepatic portal vein plasma, read-out: Hepatic portal vein Prodrug AUC): 397 ng·h/mL
Cmax ([3]; hepatic portal vein plasma, read-out: Hepatic portal vein Prodrug Cmax): 149 ng/mL
AUC ([3]; tail vein (systemic) plasma, read-out: Tail vein Prodrug AUC): 88.6 ng·h/mL
Cmax ([3]; tail vein (systemic) plasma, read-out: Tail vein Prodrug Cmax): 16.4 ng/mL
SMILES: CCOC(=O)NC(N)=NC(=O)Cc1c(Cl)cccc1Cl.Cl [Compound 3, {N′-[2-(2,6-Dichloro-phenyl)-acetyl]-guanidinocarbonyloxy}ethane Hydrochloride]
% inhibition of rat GIT transit (rat GIT transit; dose 00.1 mg/kg (guanfacine free base equivalents)): 15%
% inhibition of rat GIT transit (rat GIT transit; dose 00.3 mg/kg (guanfacine free base equivalents)): 56%
% inhibition of rat GIT transit (rat GIT transit; dose 100 mg/kg (guanfacine free base equivalents)): 57%
